≈ marks a conversion by molar mass, not a printed value.
| SMILES | solubility (20 °C) | solubility (25 °C) | other results |
| --- | --- | --- | --- |
| CC(=O)OC[C@H]([C@H](OC(C)=O)c1ccccc1)[N+](=O)[O-] | 107 µM (≈ 30 µg/mL) | – | – |
| CCS(=O)(=O)c1nnc(N(C)C(=O)NC)s1 | 11400 µM (≈ 3000 µg/mL) | – | – |
| CCOC(=O)C(C)Oc1ccc(Oc2nc3ccc(Cl)cc3o2)cc1 (stereo not given) | – | 2.59 µM (≈ 0.937 µg/mL) | – |
| O=S(=O)(O)OCCOc1ccc(Cl)cc1Cl | – | – | solubility: 871000 µM (≈ 250000 µg/mL) |
| CCOC(=O)CNc1nc(Cl)nc(NC(C)C)n1 | – | 2740 µM (≈ 750 µg/mL) | – |
| CCN(C(=O)Oc1cccc(NC(=O)OC(C)C)c1)c1ccccc1 | – | 8.76 µM (≈ 3 µg/mL) | – |
| Clc1ccc(Sc2cc(Cl)c(Cl)cc2Cl)cc1 | 0.0926 µM (≈ 0.03 µg/mL) | – | – |

Further lines, with some results ahead:

| solubility (20 °C) | solubility (25 °C) | SMILES | other results |
| --- | --- | --- | --- |
| 219 µM (≈ 50 µg/mL) | – | Cc1cc(Cl)ccc1NC(=S)N(C)C | – |
| – | 2050 µM (≈ 574 µg/mL) | O=C1OCCC1N(C(=O)C1CC1)c1cccc(Cl)c1 (stereo not given) | – |
| 1.19 µM (≈ 0.3 µg/mL) | – | CON(C(=O)c1cc(C)oc1C)C1CCCCC1 | – |
